Laboratory results as given in US20250368652A1, “MICROBIOCIDAL BICYCLIC HETEROCYCLIC CARBOXAMIDE DERIVATIVES” (SYNGENTA CROP PROTECTION AG, priority 2022, published 2025).

Columns and labels:
[1] = test system: Botryotinia fuckeliana (Botrytis cinerea); experiment: Botryotinia fuckeliana (Botrytis cinerea) / liquid culture (gray mould); assay type: cell-based; conditions: liquid culture (Vogels broth), growth inhibition photometrically 3-4 days after application, compared to untreated control
Experimental: (§1) Mycelia fragments or conidia suspensions of a fungus prepared either freshly from liquid cultures of the fungus or from cryogenic storage, are directly mixed into nutrient broth. DMSO solutions of the test compound (max. 10 mg/mL) are diluted with 0.025% Tween20 by a factor of 50 and 10 μL of this solution is pipetted into a microtiter plate (96-well format). The nutrient broth containing the fungal spores/mycelia fragments is then added to give an end concentration of the tested compound. The test plates are incubated in the dark at 24° C. and 96% relative humidity. The inhibition of fungal growth is determined photometrically after 2 to 7 days, depending on the pathosystem, and percent antifungal activity relative to the untreated check is calculated. Conidia of the fungus from cryogenic storage are directly mixed into nutrient broth (Vogels broth). After placing a (DMSO) solution of test compound into a microtiter plate (96-well format), the nutrient broth containing the fungal spores is added. The test plates are incubated at 24° C. and the inhibition of growth is determined photometrically 3-4 days after application.

Phytophthora infestans = assay type: in vivo; conditions: 200 ppm; tomato leaf disks, preventative, inoculated 1 day after application; compared to untreated control
[2] = test system: Magnaporthe grisea (Pyricularia oryzae); assay type: in vivo; conditions: 200 ppm; rice leaf segments cv. Ballila, preventative, inoculated 2 days after application; compared to untreated control
[3] = test system: Glomerella lagenarium (Colletotrichum lagenarium); experiment: Glomerella lagenarium (Colletotrichum lagenarium) / liquid culture (anthracnose); assay type: cell-based; conditions: Colletotrichum orbiculare, liquid culture (PDB), growth inhibition photometrically 3-4 days after application, compared to untreated control
Experimental: as §1, with “nutrient broth (PDB potato dextrose broth). After” for “nutrient broth (Vogels broth). After”, “growth is measured photometrically 3-4” for “growth is determined photometrically 3-4”

Pyrenophora teres = Pyrenophora teres / barley / leaf disc preventative (net blotch); assay type: in vivo; conditions: 200 ppm, barley leaf segments cv. Hasso, inoculated 2 days after application, compared to untreated control
Alternaria solani = Alternaria solani / tomato / leaf disc (early blight); assay type: in vivo; conditions: 200 ppm; tomato leaf disks cv. Baby, inoculated 2 days after application; compared to untreated control
Experimental: Leaf disks or leaf segments of various plant species are cut from plants grown in a greenhouse. The cut leaf disks or segments are placed in multiwell plates (24-well format) onto water agar. The leaf disks are sprayed with a test solution before (preventative) or after (curative) inoculation. Compounds to be tested are prepared as DMSO solutions (max. 10 mg/mL) which are diluted to the appropriate concentration with 0.025% Tween20 just before spraying. The inoculated leaf disks or segments are incubated under defined conditions (temperature, relative humidity, light, etc.) according to the respective test system. A single evaluation of disease level is carried out 3 to 14 days after inoculation, depending on the pathosystem. Percent disease control relative to the untreated check leaf disks or segments is then calculated. Tomato leaf disks cv. Baby are placed on agar in multiwell plates (24-well format) and sprayed with the formulated test compound diluted in water. The leaf disks are inoculated with a spore suspension of the fungus 2 days after application. The inoculated leaf disks are incubated at 23° C./21° C.

Compound	inhibition of growth at 20 ppm [1]	control of Phytophthora infestans (Phytophthora infestans)	control of Magnaporthe grisea [2]	inhibition of growth at 20 ppm [3]	control of Pyrenophora teres (Pyrenophora teres)	control of Alternaria solani (Alternaria solani)
O=C(NCC(F)c1ccc(Cl)cc1Cl)c1c(Oc2cccc(C3CC3)c2)cnc2c(Cl)cnn12 (racemic) [Compound P-1.9, 3-chloro-6-(3-cyclopropylphenoxy)-N-[2-(2,4-dichlorophenyl)-2-fluoro-ethyl]pyrazolo[1,5-a]pyrimidine-7-carboxamide]	≥ 80%	at least 80%	at least 80%			
Cc1cc2ncc(Oc3cccc(C4CC4)c3)c(C(=O)NCC(F)c3ccc(Cl)cc3Cl)n2n1 (stereo not shown) [Compound P-1.13, 6-(3-cyclopropylphenoxy)-N-[2-(2,4-dichlorophenyl)-2-fluoro-ethyl]-2-methyl-pyrazolo[1,5-a]pyrimidine-7-carboxamide]	≥ 80%			≥ 80%	at least 80%	at least 80%
